# Experimental data published in patent publication US8637058B2, “Compositions based on cupric salts, cupric salts and their use for controlling phytopathogens” (priority 2001, dated 2014).
# System: isolated portion of the phytopathogen with a reduced sensitivity (Plasmopara viticola)
# Experiment: Control of Plasmopara viticola on grapes, preventive leaf application (greenhouse test), isolate with reduced sensitivity
# Format: in vivo
# Conditions: fungicide alone at 0.05 ppm, scale 100 to 0
# Description: Efficacy of Compound Nr. 1 Mixed with Another Fungicidal Compound in the Control of Plasmopara viticola on Grapes in Preventive Leaf Application (Greenhouse Test) Table 3.
# Leaves of cultivar Dolcetto grape vines, cultivated in vases, in a conditioned environment (20±1° C., 70% relative humidity) are treated by spraying both sides of the leaves with compound Nr. 1 mixed with another fungicide dispersed in a hydroacetone solution at 10% by volume of acetone containing 0.3% of tween 20.
# After remaining 24 hours in a conditioned environment, the plants are infected on the lower side with an aqueous suspension of spores of Plasmopara viticola (200,000 spores per cm^3).
# The plants are kept in a humidity saturated environment, at 21° C., for the incubation period of the fungus and, at the end of this period (7 days), the fungicidal activity is evaluated according to a percentage evaluation scale from 100 (healthy plant) to 0 (completely infected plant).
# From the data indicated in Table 3, the synergic effect of the mixtures, consisting of compound Nr. […]
# When the fungicidal activity experimentally evaluated is greater than the value of E, this activity should be considered as a synergic effect.
smiles,measurement,value
"COCC(=O)N(c1c(C)cccc1C)C(C)C(=O)OC (stereo not shown) [Metalaxyl, metalaxyl]",Activity (y),12
